Patent US20040157845A1, “Vanilloid receptor ligands and their use in treatments” (Amgen Inc., priority 2003, published 2004)
Structures can show the parent of a compound that is named as a salt.

Compound | melting point
CC(C)c1ccc(NC(=O)c2cnc(Cc3c(Cl)cccc3Cl)[nH]2)cc1 (as salt: hydrochloride) [Example 12, {2-[(2,6-Dichlorophenyl)methyl]imidazol-5-yl}-N-[4-(methylethyl)phenyl]-carboxamide] | 210 to 212 °C
O=C(Nc1ccc(Br)cc1)c1cnc(Cc2c(Cl)cccc2Cl)[nH]1 (as salt: hydrochloride) [Example 13, {2-[(2,6-Dichlorophenyl)methyl]imidazol-5-yl}-N-(4-bromophenyl)carboxamide] | 253 to 254 °C
O=C(Nc1ccc(C(F)(F)F)nc1)c1csc(Cc2ccccc2Cl)n1 [Example 1, {2-[(2-Chlorophenyl)methyl](1,3-thiazol-4-yl)}-N-[6-(trifluoromethyl)(3-pyridyl)]carboxamide] | 99 to 101 °C
O=C(Nc1ccc(C(F)(F)F)cc1)c1csc(Nc2c(Cl)cncc2Cl)n1 [Example 2, {2-[(3,5-Dichloro(4-pyridyl))amino](1,3-thiazol-4-yl)}-N-[4-(trifluoromethyl)-phenyl]carboxamide] | 195 to 197 °C
Cc1cccc(C)c1Nc1nc(C(=O)Nc2ccc(C(F)(F)F)cc2)cs1 [Example 3, {2-[(2,6-Dimethylphenyl)amino](1,3-thiazol-4-yl) }-N-[4-(trifluoromethyl)-phenyl]carboxamide] | 216 to 218 °C
Cc1cccc(C)c1Nc1nc(-c2nc3cc(C(F)(F)F)ccc3[nH]2)cs1 [Example 4, (2,6-Dimethylphenyl){4-[5-(trifluoromethyl)benzimidazol-2-yl](1,3-thiazol-2-yl)}amine] | 250 to 251 °C
FC(F)(F)c1ccc2[nH]c(-c3csc(Nc4ncccc4Cl)n3)nc2c1 [Example 6, (3-Chloro(2-pyridyl)){4-[5-(trifluoromethyl)benzimidazol-2-yl](1,3-thiazol-2-yl)}amine] | 207 to 208 °C
Cc1nc(Cc2c(Cl)cccc2Cl)sc1C(=O)Nc1ccc(C(F)(F)F)cc1 [Example 7, {2-[(2,6-Dichlorophenyl)methyl]-4-methyl(1,3-thiazol-5-yl)}-N-[4-(trifluoromethyl)phenyl]carboxamide] | 180 to 183 °C
FC(F)(F)c1ccc2nc(-c3csc(Cc4c(Cl)cccc4Cl)n3)[nH]c2c1 [Example 8, 2-[(2,6-Dichlorophenyl)methyl]-4-[6-(trifluoromethyl)benzimidazol-2-yl]-1,3-thiazole] | 187 to 189 °C
CC(C)c1ccc(NC(=O)c2cnc(Cc3c(Cl)cccc3Cl)s2)cc1 [Example 9, {2-[(2,6-Dichlorophenyl)methyl](1,3-thiazol-5-yl)}-N-[4-(methylethyl)phenyl]-carboxamide] | 169 to 175 °C
O=C(Nc1ccc(C(F)(F)F)cc1)c1cnc(Cc2c(Cl)cccc2Cl)s1 [Example 10, {2-[(2,6-Dichlorophenyl)methyl](1,3-thiazol-5-yl)}-N-[4-(trifluoromethyl)-phenyl]carboxamide] | 163 to 164 °C
O=C(Nc1ccc(C(F)(F)F)cc1)c1cnc(Cc2c(Cl)cccc2Cl)[nH]1 [Example 11, {2-[(2,6-Dichlorophenyl)methyl]imidazol-5-yl}-N-[4-(trifluoromethyl)-phenyl]carboxamide] | 253 to 255 °C
O=C(Nc1ccc(C(F)(F)F)cc1)c1nc(Nc2c(Cl)cccc2Cl)sc1Br [Example 14, {2-[(2,6-Dichlorophenyl)amino]-5-bromo(1,3-thiazol-4-yl)}-N-[4-(trifluoromethyl)phenyl]carboxamide] | 151 to 162 °C
FC(F)(F)c1ccc2nc(-c3csc(Nc4c(Cl)cccc4Cl)n3)[nH]c2c1 [Example 15, (2,6-Dichloro-phenyl)-[4-(6-trifluoromethyl-1H-benzoimidazol-2-yl)-thiazol-2-yl]-amine] | 242 to 243 °C
O=C(Nc1ccc(F)c(F)c1)c1csc(Cc2c(Cl)cccc2Cl)n1 [Example 17, {2-[(2,6-Dichlorophenyl)methyl](1,3-thiazol-4-yl)}-N-(3,4-difluorophenyl)-carboxamide] | 113 to 116 °C
Clc1cc2nc(-c3csc(Cc4c(Cl)cccc4Cl)n3)[nH]c2cc1Cl [Example 18, 4-(5,6-Dichlorobenzimidazol-2-yl)-2-[(2,6-dichlorophenyl)methyl]-1,3-thiazole] | 245 to 247 °C
O=C(Nc1ccc(C(F)(F)F)cc1)c1coc(Cc2c(Cl)cccc2Cl)n1 [Example 19, {2-[(2,6-Dichlorophenyl)methyl](1,3-oxazol-4-yl)}-N-[4-(trifluoromethyl)-phenyl]carboxamide] | 182 to 184 °C
FC(F)(F)c1ccc2nc(-c3c[nH]c(Cc4c(Cl)cccc4Cl)n3)[nH]c2c1 [Example 20, 2-{2-[(2,6-Dichlorophenyl)methyl]imidazol-4-yl}-6-(trifluoromethyl)-benzimidazole] | 281 to 282 °C
FC(F)(F)c1ccc2nc(-c3coc(Cc4c(Cl)cccc4Cl)n3)[nH]c2c1 [Example 21, 2-[(2,6-Dichlorophenyl)methyl]-4-[6-(trifluoromethyl)benzimidazol-2-yl]-1,3-oxazole] | 201 to 202 °C
CC(=O)c1ccc(NC(=O)c2csc(Cc3c(Cl)cccc3Cl)n2)cc1 [Example 22] | 98.8 to 106.9 °C

Compound | melting point
COc1ccc(NC(=O)c2csc(Cc3c(Cl)cccc3Cl)n2)cn1 [Example 23] | 137.7 to 138.8 °C
O=C(Nc1ccc(C(F)(F)F)nc1)c1csc(Cc2c(Cl)cccc2Cl)n1 [Example 24] | 139.1 to 147.1 °C
CC(C)c1ccc(NC(=O)c2csc(Cc3ccccc3Cl)n2)cc1 [Example 25] | 85.4 to 92.7 °C
O=C(Nc1ccc(C(F)(F)F)cc1)c1csc(Cc2ccccc2Cl)n1 [Example 26] | 85.5 to 94 °C
O=C(Nc1ccc(C(F)(F)F)nc1)c1csc(Cc2ccccc2F)n1 [Example 31] | 104.8 to 107.7 °C
O=C(Nc1ccc(Br)cc1)c1csc(Cc2ccccc2F)n1 [Example 32] | 100.8 to 101 °C
O=C(Nc1ccc(Br)cc1)c1csc(Cc2ccccc2Cl)n1 [Example 33] | 109.4 to 110.6 °C
O=C(Nc1ccc(Br)cc1)c1csc(Cc2c(F)cccc2Cl)n1 [Example 34] | 111.8 to 112.5 °C
O=C(Nc1ccc(C(F)(F)F)nc1)c1csc(Cc2c(F)cccc2Cl)n1 [Example 35] | 123.4 to 125.1 °C
COc1ccccc1Cc1nc(C(=O)Nc2ccc(Br)cc2)cs1 [Example 36] | 138 to 138.4 °C
Cc1ccccc1Cc1nc(C(=O)Nc2ccc(Br)cc2)cs1 [Example 37] | 121.9 to 123.4 °C
COc1ccccc1Cc1nc(C(=O)Nc2ccc(C(F)(F)F)cc2)cs1 [Example 38] | 107.2 to 108.2 °C
Cc1ccccc1Cc1nc(C(=O)Nc2ccc(C(F)(F)F)nc2)cs1 [Example 39] | 140.2 to 141.3 °C
O=C(Nc1ccc(Br)cc1)c1csc(Cc2c(Cl)cccc2Cl)n1 [Example 40] | 126.6 to 132 °C
O=C(Nc1ccc(C(O)(C(F)(F)F)C(F)(F)F)cc1)c1csc(Cc2c(Cl)cccc2Cl)n1 [Example 43] | 197 to 197.8 °C
O=C(Nc1ccc(C(F)(F)C(F)(F)F)cc1)c1csc(Cc2c(Cl)cccc2Cl)n1 [Example 47] | 95 to 96.4 °C
CC(C)(C)c1ccc(NC(=O)c2csc(Cc3c(Cl)cccc3Cl)n2)cc1 [Example 49] | 139 to 141 °C
CN(C)c1ccc(NC(=O)c2csc(Cc3c(Cl)cccc3Cl)n2)cc1 [Example 50] | 172 to 174 °C
O=C(Nc1ccc(C(F)(F)F)cc1)c1csc(Nc2cccnc2Cl)n1 [Example 51] | 232.5 to 234.3 °C
O=C(Nc1ccc(Br)cc1)c1csc(Nc2cccnc2Cl)n1 [Example 52] | 214.7 to 216.2 °C

Compound | melting point
O=C(Nc1ccc(Br)cc1)c1csc(Nc2c(Cl)cncc2Cl)n1 [Example 53] | 194.9 to 196.6 °C
O=C(Nc1ccc(C(O)(C(F)(F)F)C(F)(F)F)cc1)c1csc(Nc2ccccc2F)n1 [Example 54] | 158 to 160 °C
O=C(Nc1ccc(Br)cc1)c1csc(Nc2ccccc2F)n1 [Example 55] | 198.4 to 199.7 °C
O=C(Nc1ccc(Br)cc1)c1csc(Nc2c(Cl)cccc2Cl)n1 [Example 56] | 125.9 to 126.9 °C
CC(C)c1ccc(NC(=O)c2csc(Nc3ccccc3F)n2)cc1 [Example 58] | 136.5 to 180.1 °C
O=C(Nc1ccc(Br)cc1)c1csc(Nc2ccccc2Cl)n1 [Example 60] | 220.5 to 221.3 °C
O=C(Nc1ccc(C(F)(F)F)cc1)c1csc(Nc2ccccc2Cl)n1 [Example 61] | 192.5 to 193.1 °C
O=C(Nc1ccc(C(F)(F)F)cc1)c1csc(Nc2c(Cl)cccc2Cl)n1 [Example 63, {2-[(2,6-dichlorophenyl)amino](1,3-thiazol-4-yl)}-N-[4-(trifluoromethyl)phenyl]-carboxamide] | 199 to 200 °C
Cc1cccc(C)c1Nc1nc(C(=O)Nc2ccc(C(C)C)cc2)cs1 [Example 64] | 128 to 133 °C
Cc1cccc(C)c1Nc1nc(C(=O)Nc2ccc(Br)cc2)cs1 [Example 65] | 208 to 209 °C
O=C(Nc1ccc(C(F)(F)F)cc1)c1csc(Nc2ccccc2C(F)(F)F)n1 [Example 66] | 128 to 130 °C
CC(C)c1ccc(NC(=O)c2csc(Nc3ccccc3C(F)(F)F)n2)cc1 [Example 67] | 96 to 100 °C
O=C(Nc1ccc(Br)cc1)c1csc(Nc2ccccc2C(F)(F)F)n1 [Example 68] | 151 to 153 °C
O=C(Nc1ccc(Br)cc1)c1csc(Nc2c(Cl)cccc2C(F)(F)F)n1 [Example 69] | 262 to 264 °C
CC(C)c1ccc(NC(=O)c2csc(Nc3c(Cl)cccc3C(F)(F)F)n2)cc1 [Example 70] | 216 to 218 °C
O=C(Nc1ccc(C(F)(F)F)cc1)c1csc(Nc2c(Cl)cccc2C(F)(F)F)n1 [Example 71] | 243 to 244 °C
FC(F)(F)c1ccc2[nH]c(-c3csc(Nc4ccccc4C(F)(F)F)n3)nc2c1 [Example 72] | 211 to 212 °C
FC(F)(F)c1ccc2[nH]c(-c3csc(Nc4c(Cl)cccc4C(F)(F)F)n3)nc2c1 [Example 73] | 188 to 210 °C
